Results published in US12329801B2, “Regenerative polypeptides and uses thereof” (JUVENA THERAPEUTICS, INC., priority 2021, dated 2025).

What was measured:
[1] = tested on: 10 week old dystrophic mice (mdx); test: Duchenne muscular dystrophy model, 10 week old dystrophic mice (mdx); assay type: in vivo; details: 150 μg/kg with 1.2 g/kg sodium butyrate subcutaneously every 24 hours
Experimental: Between 3-6 weeks old, the skeletal muscle of mdx mice undergoes severe necrosis followed by an increase in the activation of satellite cells to promote muscle regeneration. Treatment with IGF2 fusion polypeptide described herein can improve the regeneration process and therefore muscle health. Mice were fed ad libitum and housed under controlled conditions of lighting (12-hour light/12-hour dark) and temperature (22-24° C.). Mice were allowed to acclimate for 3 days prior to the initiation of the experiment. During the acclimation period, the weight, forelimb and both limb grip strength as well as in vivo tetanic force were assessed to determine the baseline strength of each mouse. 10 week old dystrophic mice (mdx) were injected with the IGF2 fusion polypeptide with sodium butyrate subcutaneously for 14 days. At day 7, forelimb and both grip strength are measured as described in Example 4. BrdU was injected on days 12, 13 and 14. On days 13, 14 and 15, forelimb and both limb grip strength and in vivo tetanic force were tested, and an endurance test to determine max distance and max speed was performed using methods described in Example 4.
Mice were euthanized. The right tibialis anterior and gastrocnemius were collected, immersed in Tissue-TEK OCT and then flash frozen in a chilled isopentane bath precooled in liquid nitrogen and stored at −80° C. Tissue was sectioned and stained for Laminin to determine the cross sectional area (CSA) of muscle fibers, for eMyHC to measure new fiber formation and for BrdU to assess the proliferation rate. The left anterior tibialis and gastrocnemius were collected and flash frozen in liquid nitrogen for molecular analysis that include qPCR and western blot.

[2] = Murine pharmacokinetics, intravenous, ELISA, non-compartment analysis; assay type: in vivo, mice; details: mice 10-12 weeks old, dose 10 mg/kg (HSA-IGF2R61A), 600 ug/kg (IGF2)
Experimental: Murine pharmacokinetics (PK) represents the absorption, distribution, metabolism, and elimination of drugs from the body. The pharmacokinetic profile of the therapeutic polypeptides were determined in mice (10-12 weeks old). Mice were fed ad libitum and housed under controlled conditions of lighting (12-hour light/12-hour dark) and temperature (22-24° C.). Mice were allowed to acclimate for 3 days prior to the initiation of the experiment. Intravenous (IV) injection in 10-12 weeks old mice. Engineered mitogenic polypeptides concentrations in the samples were measured by ELISA. Various pharmacokinetics will be calculated as well as the absorption/elimination dynamics following different routes of administration.

With “IGF2: Human IGF2 amino acid sequence, SEQ ID NO: 29” the bothlimb grip strength [1] was “effective at improving”, the forelimb grip strength [1] was “effective at improving” and the total work [1] was “effective at improving”. The treadmill running distance [1] was “effective at improving”, the “treadmill running time to exhaustion” value [1] was “effective at improving” and the muscle weight ([1]; vs vehicle) was “effective at improving”. For the same substance, the Half-life [2] was 2.85 h.
